Measured values reported in article PMC6958329, “New ^55Co-labeled Albumin-Binding Folate Derivatives as Potential PET Agents for Folate Receptor Imaging” (Pharmaceuticals, 2019).
Where “and” joins values, the source holds several entries; their conditions need not be identical. Equal entries are not always repeated.

What was measured:
FR-expressing KB cells = assay: Cell binding and internalization in KB cells; format: cell-based, human; conditions: for uptake blocked by co-incubation with folic acid: 0.7 mM folic acid
Protocol: Cellular assays were performed using the human cervical cancer KB cell line, which was cultured in folate-deficient cell media prior to use. The ^55Co-labeled folates were incubated with FR-expressing KB cells to determine total uptake (i.e., all cell-associated activity, both surface-bound and internalized) and the internalized fraction. To determine whether uptake was receptor-mediated, some cells were co-incubated with folic acid, which binds to FRs with high affinity to act as a blocking agent. […] The uptake profiles for both of the tested radiofolates were similar to each other and more similar to the previously reported [^68Ga]Ga-rf42 complex, in contrast to [^64Cu]Cu-rf42 [14]. In the case of [^55Co]Co-cm10, 26% of the total uptake was internalized with 95% of the uptake blocked by co-incubation of the cells with 0.7 mM of folic acid (Figure 3).
The human cervical cancer cell line KB (CCL-17) was purchased from ATCC (Manassas, VA, USA) and cells were cultured in Gibco folate-deficient RPMI 1640 growth medium (FFRPMI, Thermo Scientific, Waltham, MA, USA) supplemented with 10% fetal bovine serum, and Gibco 1% Antibiotic-Antimycotic. Cells were cultured following standard procedures and were incubated at 37 °C in a 5% CO2 environment and harvested using Gibco 0.25% trypsin-EDTA.
Cell internalization was performed similarly to a previously published procedure. KB cells were harvested, washed with supplemented FFRPMI, and resuspended in supplemented FFRPMI at a final concentration of 1 × 10^5 cells/mL for seeding. In […], 1 mL of the cell mixture was added to each well, and the plates were incubated overnight to allow for adhesion and growth. The following morning, the radiofolates were prepared at molar activities of 331.7 MBq/μmol (9.0 mCi/µmol) [^55Co]Co-cm10 and 299.5 MBq/μmol (8.1 mCi/μmol) in 50 μL final volume and then diluted in supplement free FFRPMI (either with or without 1 mM folic acid) to a final volume of 1 mL/well. The plates were collected, the supernatants discarded, and 1 mL of the dilute radiofolates in media was added to each well (n = 4 for each condition). […] The stripping buffer and lysed cell fractions were collected separately and counted using an automatic gamma counter.
The lysed cell fractions in NaOH were saved, and the total protein concentration for each sample was determined using a Pierce Micro BCA Protein Assay kit (Thermo Scientific, Waltham, MA, USA). The samples were vortexed vigorously prior to assaying, and were analyzed without further dilution. The results were used to normalize the measured radioactivity to the average protein content in each well.

[1] = In vitro stability in PBS (radio-TLC); format: physicochemical; conditions: 37 °C, normalized to 0 h, n = 3
Protocol: Stability of the ^55Co-labeled folates was monitored over a period of 24 h in phosphate buffered saline (PBS) and mouse serum, to monitor the stability of a dose prior to injection (for potential shipment to a PET center) and match the longest biodistribution time point, respectively. The percentage of the intact complex was monitored at 1 h, 4 h, and 24 h via radio-TLC (PBS) or HPLC (mouse serum). […] In PBS, both radioconjugates retained 93% or greater stability at 24 h. […] As a control, one group of replicate serum tubes contained only [^55Co]CoCl2. […] Therefore, the peak corresponding to free [^55Co]CoCl2 (tR = 2.2 min) was used to determine the overall serum stability of the ^55Co-labeled chelates, which was approximately 95% for each compound at 24 h.
The ^55Co-labeled folate derivatives were diluted 10-fold in 10 mM PBS (pH = 7.4) or whole mouse serum (EMD Millipore, Burlington, MA) in 1.5 mL centrifuge tubes to final volumes of 100 μL. The tubes were incubated at 37 °C with vortexing at 900 rpm using an Eppendorf ThermoMixer C (Eppendorf, Hamburg, Germany) equipped with a 1.5 mL heating block. In the case of PBS stability, three replicate tubes were prepared with average final activity concentrations of 37 kBq (1 μCi) [^55Co]Co-cm10/μL or 37 kBq (1 μCi) [^55Co]Co-rf42/μL, and the final concentrations of precursor were 0.07 mM of cm10 or rf42. The percent of the intact complex was determined by analyzing 1 μL aliquots of each solution by radio-TLC at 1 h, 4 h and 24 h. For mouse serum stability, three replicate tubes were prepared for each time point for each complex. The final average activity concentrations were 11.1 kBq (0.3 μCi) [^55Co]Co-cm10/μL and 7.4 kBq (0.2 μCi) [^55Co]Co-rf42/μL and 0.02 mM final folate concentration. A control sample was prepared for each time point that contained an average of 10.4 kBq/μL of [^55Co]CoCl2. At each time point, 300 μL of ACN was added to each tube to precipitate serum proteins. The tubes were centrifuged at 4500 rpm for 5 min using a benchtop microcentrifuge (Eppendorf, Hamburg, Germany) and the supernatants collected. The pellets were washed once more, and the supernatants were collected and combined with the first ACN wash. The activities in the pellets and supernatants were determined using a 2480 Wizard2 Automatic Gamma Counter (Perkin Elmer, Waltham, MA, USA) to determine the amount of activity associated with the protein pellet. To determine the percentage of intact complex, the supernatant was diluted 2-fold with water, and 100 μL of this mixture was injected into the HPLC.

| Structure (SMILES) | fraction of total uptake internalized (FR-expressing KB cells) [%] | uptake blocked by co-incubation with folic acid (FR-expressing KB cells) [%] | percent intact complex, PBS ([1]; 1 h) [%] | percent intact complex, PBS ([1]; 4 h) [%] | percent intact complex, PBS ([1]; 24 h) |
| --- | --- | --- | --- | --- | --- |
| Nc1nc2ncc(CNc3ccc(C(=O)N[C@@H](CCC(=O)NC(CCCCNC(=O)CN4CCN(CC(=O)O)CCN(CC(=O)O)CCN(CC(=O)O)CC4)C(=O)NC(CCCCNC(=O)CCCc4ccc(I)cc4)C(=O)O)C(=O)O)cc3)nc2c(=O)[nH]1.[55Co] (stereo partly shown) [[^55Co]Co-cm10] | 26 | 95 | 97 ± 2 | 95 ± 1 | 93% and 93.4 ± 0.3% |
| Nc1nc2ncc(CNc3ccc(C(=O)N[C@@H](CCC(=O)NC(CCCCNC(=O)CCC(C(=O)O)N4CCN(CC(=O)O)CCN(CC(=O)O)CC4)C(=O)NC(CCCCNC(=O)CCCc4ccc(I)cc4)C(=O)O)C(=O)O)cc3)nc2c(=O)[nH]1.[55Co] (stereo partly shown) [[^55Co]Co-rf42] | 24 | 97 | 98 ± 2 | 95.6 ± 0.9 | 93% and 93 ± 3% |
